# In publication PMC4287394 (Clinical cancer research : an official journal of the …, 2014):
# How the values were obtained:
# advanced solid tumors = experiment: Antitumor activity; type: in vivo, human
# tumor 18F-FDG uptake = experiment: Whole body 18F-FDG-PET; type: in vivo, human
# [1] = tested on: phospho-AKT (Serine 473) in tumor tissue; experiment: Phospho-AKT immunohistochemistry in paired tumor biopsies; type: in vivo, human
# plasma insulin = conditions: 330mg, cycle 1 day 1, 1 hour from baseline
# plasma glucose = conditions: 330mg, cycle 1 day 1, 1 hour from baseline
# mTOR = conditions: cited from earlier work
# [2] = tested on: purified recombinant human PI3K p110γ; conditions: read-out: IC50 p110γ; purified recombinant human PI3K isoforms; cited from earlier work
# Class I PI3K = conditions: cited from earlier work
# [3] = cited from earlier work
# [4] = 9 patients with PI3K pathway alterations
# [5] = patient with BRAF V600E-mutated metastatic melanoma, 330mg once-daily 21/28
# [6] = patient with cKIT exon 9 mutant gastrointestinal stromal tumor, 450mg once-daily
# [7] = platinum-refractory ovarian cancer patient, 100mg once-daily 21/28
smiles,measurement,setting,value
"CS(=O)(=O)N1CCN(Cc2cc3nc(-c4cccc5[nH]ncc45)nc(N4CCOCC4)c3s2)CC1 [pictilisib, 2-(1H-indazol-4-yl)-6-(4-methanesulfonyl-piperazin-1-ylmethyl)-4-morpholin-4-yl-t hieno[3,2-d]pyrimidine]",Patients with RECIST-based response,advanced solid tumors; [4],none
same,Patients with response by GCIG-CA125 criteria,advanced solid tumors; [4],1
same,Response by RECIST,advanced solid tumors; [5],partial response
same,Time on pictilisib,advanced solid tumors; [5],9.5 months
same,Duration of stable disease,advanced solid tumors; [6],7.5 months
same,Duration of radiological stable disease (RECIST),advanced solid tumors; [7],4 months
same,Serum CA125 after treatment,"advanced solid tumors; platinum-refractory ovarian cancer patient, decrease from 1214 U/ml",400 U/ml
same,Patients with metabolic partial response by EORTC-PET criteria,tumor 18F-FDG uptake; 32 evaluable patients,22%
same,Patients with metabolic partial response by EORTC-PET criteria (>25% reduction in mean SUVmax),tumor 18F-FDG uptake; 32 evaluable patients,7 of 32 and Seven of 32
same,Overall median change in SUVmax,tumor 18F-FDG uptake; all evaluable patients,−13%
same,Range of change in SUVmax,tumor 18F-FDG uptake; all evaluable patients,−47 to 22%
same,Dose levels showing reduction from baseline of 18F-FDG-tracer uptake,tumor 18F-FDG uptake; in vivo,≥ 45 mg
same,Reduction in SUVmax on 18F-FDG-PET,tumor 18F-FDG uptake; [6],47%
same,Reduction in mean SUVmax in subcapsular liver metastases,tumor 18F-FDG uptake; [7],30%
same,Decrease in AKT phosphorylation in tumor biopsies,"[1]; AUC >20uM.hr on day 15, 2 of 3 patients",100%
same,Suppression of phosphorylated serine-473 AKT in tumor,[1]; doses associated with AUC >20uM.hr,> 90%
same,Mean fold-change (post- over pre-treatment) in plasma insulin,plasma insulin,3.58 (95%CI: 2.33-5.49)
same,Mean fold-change (post- over pre-treatment) in plasma glucose,plasma glucose,1.18 (95%CI: 1.10-1.26)
same,fold less activity against mTOR compared to p110α,mTOR,193 fold
same,IC50,[2],75 nM
same,Observed in vitro potency compared with BKM120,Class I PI3K,higher
same,Central nervous system (CNS) penetration compared with BKM120,[3],lower
